Data: PubChem BioAssay AID330 (DTP/NCI, 2004)
Several values for one entry are separate records, joined by “and”; a condition that tells them apart may be missing. Equal entries are not always repeated. Toxic doses and inconclusive results are not listed. How the source made its calls: active means survival T/C of 150% or more; inactive means T/C below 125% in these data.

Tested on: P388 leukemia ip, CD2F1 mice, survival T/C
Assay: NCI In Vivo Anticancer Drug Screen. Data for tumor model P388 Leukemia (intraperitoneal) in CD2F1 (CDF1) mice
Conditions: endpoint: median survival time, higher = longer survival
Summary of the method: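 Mice carrying the transplanted tumor received test compound or vehicle. Survival was recorded in each group, and the value is the treated-group measurement divided by that of the vehicle-treated control group.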

[1] = dose: 60.0 mg/kg/injection, schedule: Q01DX005 (ip), vehicle: Klucel (hydroxypropylcellulose) (HPC)
[2] = dose: 120.0 mg/kg/injection, schedule: Q01DX005 (ip), vehicle: Klucel (hydroxypropylcellulose) (HPC)
[3] = dose: 240.0 mg/kg/injection, schedule: Q01DX005 (ip), vehicle: Klucel (hydroxypropylcellulose) (HPC)
[4] = dose: 50.0 mg/kg/injection, schedule: Q01DX005 (ip), vehicle: Klucel (hydroxypropylcellulose) (HPC)
[5] = dose: 100.0 mg/kg/injection, schedule: Q01DX005 (ip), vehicle: Klucel (hydroxypropylcellulose) (HPC)
[6] = dose: 200.0 mg/kg/injection, schedule: Q01DX005 (ip), vehicle: Klucel (hydroxypropylcellulose) (HPC)

Measured: T/C

Nc1cccc2c1C(=O)c1nccnc1C2=O
inactive: dose: 100.0 mg/kg/injection, schedule: Q01DX001 (ip), vehicle: Klucel + Tween-80 98 % of control | dose: 200.0 mg/kg/injection, schedule: Q01DX001 (ip), vehicle: Klucel + Tween-80 98 % of control | dose: 400.0 mg/kg/injection, schedule: Q01DX001 (ip), vehicle: Klucel + Tween-80 97 % of control

CC(C)C(=O)OC1(C(C)c2ccccc2)C(=O)NC(=O)NC1=O (stereo not given)
inactive: dose: 7.5 mg/kg/injection, schedule: Q01DX005 (ip), vehicle: Klucel (hydroxypropylcellulose) (HPC) 98 % of control | dose: 15.0 mg/kg/injection, schedule: Q01DX005 (ip), vehicle: Klucel (hydroxypropylcellulose) (HPC) 102 % of control

C=CCOC1CC(C)(O)Cc2cc3c(c(O)c21)C(=O)c1c(O)cc2c(c1C3=O)OC1OC2(C)C(O)C(N(C)C)C1O (stereo not given)
inactive: dose: 1.25 mg/kg/injection, schedule: Q01DX009 (ip), vehicle: other 114 % of control | dose: 2.5 mg/kg/injection, schedule: Q01DX009 (ip), vehicle: other 120 % of control | dose: 10.0 mg/kg/injection, schedule: Q01DX009 (ip), vehicle: other 123 % of control

CCCC1C/C=C/C=C/C=C/C=C/C(OC2OC(C)C(O)C(N)C2O)CC(O)C(C(=O)O)C(O)CC(=O)CC(O)CCCC(=O)CC(O)C(CC)C(=O)O1 (stereo not given)
inactive: dose: 2.5 mg/kg/injection, schedule: Q01DX009 (ip), vehicle: Klucel (hydroxypropylcellulose) (HPC) 94 % of control | dose: 5.0 mg/kg/injection, schedule: Q01DX009 (ip), vehicle: Klucel (hydroxypropylcellulose) (HPC) 106 % of control | dose: 10.0 mg/kg/injection, schedule: Q01DX009 (ip), vehicle: Klucel (hydroxypropylcellulose) (HPC) 92 % of control | dose: 20.0 mg/kg/injection, schedule: Q01DX009 (ip), vehicle: Klucel (hydroxypropylcellulose) (HPC) 87 % of control

CC1(C)N=NC([Si](C)(C)C)=C1C(=O)c1ccccc1
inactive: [1] 101 % of control | [2] 98 % of control | [3] 105 % of control

N#Cc1nnc2cc(-c3ccccc3)nn2c1C1CC1
inactive: [1] 96 % of control | [2] 96 % of control | [3] 100 % of control

CC(=O)Nc1ccc(N=NNc2ccccc2)cc1
inactive: dose: 3.12 mg/kg/injection, schedule: Q01DX001 (ip), vehicle: Klucel (hydroxypropylcellulose) (HPC) 100 % of control | dose: 6.25 mg/kg/injection, schedule: Q01DX001 (ip), vehicle: Klucel (hydroxypropylcellulose) (HPC) 93 % of control | dose: 12.5 mg/kg/injection, schedule: Q01DX001 (ip), vehicle: Klucel (hydroxypropylcellulose) (HPC) 99 % of control and 97 % of control

O=[N+]([O-])c1ccc(N/N=C(\CO)c2ccccc2)c([N+](=O)[O-])c1
inactive: dose: 50.0 mg/kg/injection, schedule: Q04DX003 (ip), vehicle: saline with Tween-80 100 % of control | dose: 100.0 mg/kg/injection, schedule: Q04DX003 (ip), vehicle: saline with Tween-80 104 % of control | dose: 200.0 mg/kg/injection, schedule: Q04DX003 (ip), vehicle: saline with Tween-80 100 % of control

Oc1nc(-c2ccccc2)sc1-c1ccccc1
inactive: dose: 50.0 mg/kg/injection, schedule: Q01DX009 (ip), vehicle: saline with Tween-80 89 % of control | dose: 100.0 mg/kg/injection, schedule: Q01DX009 (ip), vehicle: saline with Tween-80 92 % of control | dose: 200.0 mg/kg/injection, schedule: Q01DX009 (ip), vehicle: saline with Tween-80 104 % of control

CCCCC(C)(C(=O)OCC)C(=O)OCC
inactive: dose: 12.5 mg/kg/injection, schedule: Q01DX005 (ip), vehicle: Klucel (hydroxypropylcellulose) (HPC) 105 % of control | dose: 25.0 mg/kg/injection, schedule: Q01DX005 (ip), vehicle: Klucel (hydroxypropylcellulose) (HPC) 105 % of control | [4] 105 % of control | [5] 105 % of control | [6] 111 % of control | dose: 400.0 mg/kg/injection, schedule: Q01DX005 (ip), vehicle: Klucel (hydroxypropylcellulose) (HPC) 105 % of control

Nc1[nH]c(=S)ncc1-c1ccc(Cl)c(Cl)c1
inactive: dose: 60.0 mg/kg/injection, schedule: Q01DX005 (ip), vehicle: saline with Tween-80 94 % of control | dose: 120.0 mg/kg/injection, schedule: Q01DX005 (ip), vehicle: saline with Tween-80 93 % of control | dose: 240.0 mg/kg/injection, schedule: Q01DX005 (ip), vehicle: saline with Tween-80 88 % of control

Cc1ccc(S(=O)(=O)Cc2ccccc2)cc1
inactive: dose: 50.0 mg/kg/injection, schedule: Q04DX003 (ip), vehicle: other 90 % of control | dose: 100.0 mg/kg/injection, schedule: Q04DX003 (ip), vehicle: other 95 % of control | dose: 200.0 mg/kg/injection, schedule: Q04DX003 (ip), vehicle: other 90 % of control

CSc1c2ccncc2c(C)c2c1[nH]c1ccccc12
inactive: dose: 6.25 mg/kg/injection, schedule: Q04DX002 (ip), vehicle: distilled water + Tween-80 95 % of control | dose: 12.5 mg/kg/injection, schedule: Q04DX002 (ip), vehicle: distilled water + Tween-80 94 % of control | dose: 25.0 mg/kg/injection, schedule: Q04DX002 (ip), vehicle: distilled water + Tween-80 88 % of control | dose: 50.0 mg/kg/injection, schedule: Q04DX002 (ip), vehicle: distilled water + Tween-80 89 % of control | dose: 100.0 mg/kg/injection, schedule: Q04DX002 (ip), vehicle: distilled water + Tween-80 95 % of control | dose: 200.0 mg/kg/injection, schedule: Q04DX002 (ip), vehicle: distilled water + Tween-80 98 % of control

CCN(CC)CCOc1ccc(NC2=C(Cl)C(=O)C(Nc3ccc(OCCN(CC)CC)cc3)=C(Cl)C2=O)cc1
inactive: dose: 3.13 mg/kg/injection, schedule: Q01DX009 (ip), vehicle: saline + alcohol 103 % of control | dose: 6.25 mg/kg/injection, schedule: Q01DX009 (ip), vehicle: saline + alcohol 110 % of control | dose: 12.5 mg/kg/injection, schedule: Q01DX009 (ip), vehicle: saline + alcohol 112 % of control | dose: 12.5 mg/kg/injection, schedule: Q01DX009 (ip), vehicle: saline with Tween-80 105 % of control | dose: 25.0 mg/kg/injection, schedule: Q01DX009 (ip), vehicle: saline with Tween-80 106 % of control

N#CNC(=S)S
inactive: dose: 100.0 mg/kg/injection, schedule: Q04DX002 (ip), vehicle: saline 105 % of control | dose: 200.0 mg/kg/injection, schedule: Q04DX002 (ip), vehicle: saline 109 % of control | dose: 400.0 mg/kg/injection, schedule: Q04DX002 (ip), vehicle: saline 105 % of control

C/C(=N\NC(=S)N1CCN(c2ccccn2)CC1)c1cccc(C)n1
inactive: dose: 6.25 mg/kg/injection, schedule: Q01DX005 (ip), vehicle: saline with Tween-80 101 % of control and 107 % of control | dose: 12.5 mg/kg/injection, schedule: Q01DX005 (ip), vehicle: saline with Tween-80 103 % of control and 124 % of control | dose: 25.0 mg/kg/injection, schedule: Q01DX005 (ip), vehicle: saline with Tween-80 118 % of control

COc1cccc2c1C(=O)c1c(O)c3c(c(O)c1C2=O)C[C@@](O)(C(=O)CSC(C)=O)C[C@@H]3OC1CC(N)C(O)C(C)O1 (stereo not given in full)
inactive: dose: 25.0 mg/kg/injection, schedule: Q01DX009 (ip), vehicle: water 108 % of control and 90 % of control

N=C(N)c1ccc2oc(/C=C/c3ccc(-c4cc5cc(C(=N)N)ccc5o4)cc3)cc2c1
inactive: [4] 98 % of control | [5] 104 % of control | [6] 104 % of control

CN1C(=O)C(CC(=O)O)NC1=S (stereo not given)
inactive: dose: 60.0 mg/kg/injection, schedule: Q01DX005 (ip), vehicle: saline 101 % of control | dose: 120.0 mg/kg/injection, schedule: Q01DX005 (ip), vehicle: saline 103 % of control | dose: 240.0 mg/kg/injection, schedule: Q01DX005 (ip), vehicle: saline 104 % of control

O=C(c1ccc(F)cc1)c1no[n+]([O-])c1C(=O)c1ccc(F)cc1
inactive: dose: 37.5 mg/kg/injection, schedule: Q01DX009 (ip), vehicle: saline with Tween-80 122 % of control | dose: 75.0 mg/kg/injection, schedule: Q01DX009 (ip), vehicle: saline with Tween-80 118 % of control
